The values below come from patent publication US12331041B2, “GLP-1 receptor agonists and uses thereof” (Pfizer Inc., priority 2018, dated 2025).

Assay [1] concerns the target T1, human GLP-1R (Homo sapiens, UniProt P43220, G168S).
T1 construct: expressed in transfected cells
Put plainly: CHO GLP-1R Clone H6 - Assay 1 (HTRF cAMP agonist assay). The assay is classed as cell-based. The settings on record: for EC50: CHO Clone H6, high GLP-1R density, cAMP, geometric mean. Put shortly:
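CHO Clone H6 cells stably expressing human GLP-1R (G168S) were plated 48 h, then given compound for 30 min at 37° C in HBSS/0.1% BSA/HEPES with 100 μM IBMX and 1% DMSO. cAMP was measured by HTRF against a standard curve.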
On the technique in general: Time-resolved FRET reads energy transfer from a long-lived donor to a nearby acceptor.

In assay [2] the target is T2, human GLP-1R (Homo sapiens, UniProt P43220, L260F).
T2 construct: expressed in transfected cells; host or cells: CHO Flp-In T-REx, clonal line C6 (pcDNA5-FRT-TO)
T2 sequence (P43220 24-463 L260F): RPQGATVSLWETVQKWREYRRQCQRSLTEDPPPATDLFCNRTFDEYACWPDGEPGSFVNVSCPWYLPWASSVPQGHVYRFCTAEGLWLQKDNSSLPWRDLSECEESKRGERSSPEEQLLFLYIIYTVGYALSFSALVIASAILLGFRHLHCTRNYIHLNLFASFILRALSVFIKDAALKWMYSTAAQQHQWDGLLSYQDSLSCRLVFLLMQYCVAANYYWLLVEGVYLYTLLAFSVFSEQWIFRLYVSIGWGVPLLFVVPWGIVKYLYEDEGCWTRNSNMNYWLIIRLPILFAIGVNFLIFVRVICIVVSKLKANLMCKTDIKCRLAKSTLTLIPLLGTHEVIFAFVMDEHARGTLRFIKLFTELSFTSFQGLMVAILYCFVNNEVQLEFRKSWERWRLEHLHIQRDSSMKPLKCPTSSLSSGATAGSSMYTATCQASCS
Put plainly: CHO GLP-1R Clone C6 - Assay 2 (HTRF cAMP agonist assay). The format is cell-based. Particulars: for EC50: CHO clone C6, low GLP-1R density, cAMP, geometric mean.

Where [3] appears, read: CHO Clone H6, relative to saturating full agonist GLP-1 7-36 (1 μM), arithmetic mean.
Setting [4] is: CHO clone C6, relative to saturating full agonist GLP-1 (1 μM), arithmetic mean.

Where a name gives a salt, the structure may show the parent alone.

As a reminder, the EC50 is the concentration giving half of the maximal effect. Lower therefore signals greater potency. In general, Emax refers to the size of the effect at its maximum, as opposed to the concentration needed.

T1 sequence (P43220 24-463 G168S): as the sequence (P43220 24-463 L260F) above, with G145S, F237L counted along it

For `CCn1cncc1Cn1c(CN2CCC(c3cccnc3OCc3ccc(C#N)cc3F)CC2)nc2ccc(C(=O)O)cc21` [Example 16, 2-[(4-{2-[(4-cyano-2-fluorobenzyl)oxy]pyridin-3-yl}piperidin-1-yl)methyl]-1-[(1-ethyl-1H-imidazol-5-yl)methyl]-1H-benzimidazole-6-carboxylic acid, trifluoroacetate salt], the figures for the EC50 at human GLP-1R [1] and on human GLP-1R [2] were 0.99 nM and 18 nM, respectively. Besides, the Emax on human GLP-1R [1] (setting [3]) was determined as 87%; on human GLP-1R [2] (setting [4]) it was 130%.

For the compound `O=C(O)c1ccc2nc(C3CC34CCN(c3nc(OCc5ccc(Cl)cc5F)ncc3F)CC4)n(CCn3cncn3)c2c1` (single isomer, unassigned) [Example 41, 2-(6-{2-[(4-chloro-2-fluorobenzyl)oxy]-5-fluoropyrimidin-4-yl}-6-azaspiro[2.5]oct-1-yl)-1-[2-(1H-1,2,4-triazol-1-yl)ethyl]-1H-benzimidazole-6-carboxylic acid, trifluoroacetate salt, from P7], the half-maximal effective concentration (EC50) came out at 7.6 nM on human GLP-1R [1] and 130 nM on human GLP-1R [2]. In addition, the Emax at human GLP-1R [1] (setting [3]) was 84%; at human GLP-1R [2] (setting [4]), 96%.

In the case of `CCn1cncc1Cn1c(CN2CCC(c3cccnc3OCc3ccc(Cl)cc3F)CC2)nc2ccc(C(=O)O)cc21` [Example 3, 2-[(4-{2-[(4-chloro-2-fluorobenzyl)oxy]pyridin-3-yl}piperidin-1-yl)methyl]-1-[(1-ethyl-1H-imidazol-5-yl)methyl]-1H-benzimidazole-6-carboxylic acid, trifluoroacetate salt], the results for the concentration giving a half-maximal response (EC50) on human GLP-1R [1] and at human GLP-1R [2] were 0.58 nM and 9 nM, respectively. For the same compound, the maximal response (Emax) on human GLP-1R [1] (setting [3]) is 79%; at human GLP-1R [2] (setting [4]), 88%.

Take `N#Cc1ccc(COc2ccc(F)c(N3CCC4(CC3)CC4c3nc4ccc(C(=O)O)cc4n3CC3CCO3)n2)c(F)c1` (single isomer, unassigned) [Example 55]: the EC50 turned out to be 0.33 nM at human GLP-1R [1] and 5.8 nM on human GLP-1R [2]. For the same compound, the “Assay 1 Emax (%)” value at human GLP-1R [1] (setting [3]) came out at 83%. Besides, the “Assay 2 Emax (%)” value on human GLP-1R [2] (setting [4]) amounted to 82%.

`N#Cc1ccc(COc2nc(N3CCC4(CC3)CC4c3nc4ccc(C(=O)O)cc4n3C[C@@H]3CCO3)c(F)cc2F)c(F)c1` (mixture of isomers) [Example 56, Ammonium 2-(6-{6-[(4-cyano-2-fluorobenzyl)oxy]-3,5-difluoropyridin-2-yl}-6-azaspiro[2.5]oct-1-yl)-1-[(2S)-oxetan-2-ylmethyl]-1H-benzimidazole-6-carboxylate]: the EC50 came to 0.38 nM at human GLP-1R [1] and 4.2 nM on human GLP-1R [2]. Also, the Emax worked out at 80% on human GLP-1R [1] (setting [3]) and 90% at human GLP-1R [2] (setting [4]).

On to `Cn1cnnc1Cn1c(C2CC23CCN(c2nc(OCc4ccc(Cl)cc4F)c(F)cc2F)CC3)nc2ccc(C(=O)O)cc21` (stereo not drawn) [Example 60, 2-(6-{6-[(4-chloro-2-fluorobenzyl)oxy]-3,5-difluoropyridin-2-yl}-6-azaspiro[2.5]oct-1-yl)-1-[(4-methyl-4H-1,2,4-triazol-3-yl)methyl]-1H-benzimidazole-6-carboxylic acid, trifluoroacetate salt], for which the EC50 on human GLP-1R [1] was 5 nM; at human GLP-1R [2] it was 110 nM. Also, the maximal effect (Emax) at human GLP-1R [1] (setting [3]) was found to be 91%; at human GLP-1R [2] (setting [4]), 110%.

For the compound `CCn1cncc1Cn1c(C2CC23CCN(c2nc(OCc4ccc(Cl)cc4F)ncc2F)CC3)nc2ccc(C(=O)O)cc21` (stereo not drawn) [Example 39, 2-(6-{2-[(4-chloro-2-fluorobenzyl)oxy]-5-fluoropyrimidin-4-yl}-6-azaspiro[2.5]oct-1-yl)-1-[(1-ethyl-1H-imidazol-5-yl)methyl]-1H-benzimidazole-6-carboxylic acid, trifluoroacetate salt, from P7], the figures for the EC50 at human GLP-1R [1] and at human GLP-1R [2] were 1.6 nM and 29 nM, respectively. The Emax at human GLP-1R [1] (setting [3]) worked out at 90%; on human GLP-1R [2] (setting [4]), 95%.

In the case of `Cn1c(CN2CCC(c3nccnc3OCc3ccc(Cl)cc3F)CC2)nc2ncc(C(=O)O)cc21` [Example 30, 2-[(4-{3-[(4-chloro-2-fluorobenzyl)oxy]pyrazin-2-yl}piperidin-1-yl)methyl]-1-methyl-1H-imidazo[4,5-b]pyridine-6-carboxylic acid, hydrochloride salt], the EC50 at human GLP-1R [1] stood at 140 nM; at human GLP-1R [2], 2800 nM. Moreover, the Emax on human GLP-1R [1] (setting [3]) was determined as 79%; at human GLP-1R [2] (setting [4]), 110%.

Regarding `N#Cc1ccc(COc2cccc(N3CCC4(CC3)CC4c3nc4ccc(C(=O)O)cc4n3CC3CCO3)n2)c(F)c1` (single isomer, unassigned) [Example 35], the EC50 on human GLP-1R [1] was 330 nM; on human GLP-1R [2], 13000 nM. Also, the Emax turned out to be 85% on human GLP-1R [1] (setting [3]) and 100% at human GLP-1R [2] (setting [4]).

On to `CCn1nncc1Cn1c(CN2CCC(c3ccnc(OCc4ccc(Cl)cc4F)n3)CC2)nc2ccc(C(=O)O)cc21` [Example 64, 2-[(4-{2-[(4-chloro-2-fluorobenzyl)oxy]pyrimidin-4-yl}piperidin-1-yl)methyl]-1-[(1-ethyl-1H-1,2,3-triazol-5-yl)methyl]-1H-benzimidazole-6-carboxylic acid], for which the EC50 amounted to 24 nM at human GLP-1R [1] and 100 nM at human GLP-1R [2]. Moreover, the results for the Emax at human GLP-1R [1] (setting [3]) and on human GLP-1R [2] (setting [4]) were 96% and 100%, respectively.

Regarding `COCCn1c(CN2CCN(c3ccnc(OCc4ccc(Cl)cc4F)n3)[C@H](C)C2)nc2ccc(C(=O)O)cc21` [Example 74, 2-{[(3R)-4-{2-[(4-chloro-2-fluorobenzyl)oxy]pyrimidin-4-yl}-3-methylpiperazin-1-yl]methyl}-1-(2-methoxyethyl)-1H-benzimidazole-6-carboxylic acid, trifluoroacetate salt], the EC50 at human GLP-1R [1] stood at 500 nM; at human GLP-1R [2], 11000 nM. In addition, the values for the Emax at human GLP-1R [1] (setting [3]) and at human GLP-1R [2] (setting [4]) were 86% and 96%, respectively.

As for `O=C(O)c1ccc2nc(CN3CCC(c4cccnc4OCc4ccc(Cl)cc4F)CC3)n(Cc3ncco3)c2n1` [Example 7, 2-[(4-{2-[(4-chloro-2-fluorobenzyl)oxy]pyridin-3-yl}piperidin-1-yl)methyl]-3-(1,3-oxazol-2-ylmethyl)-3H-imidazo[4,5-b]pyridine-5-carboxylic acid, trifluoroacetate salt], the concentration giving a half-maximal response (EC50) on human GLP-1R [1] was 8.9 nM; at human GLP-1R [2], 190 nM. Besides, the Emax at human GLP-1R [1] (setting [3]) and on human GLP-1R [2] (setting [4]) was 81% in each case.

For `O=C(O)c1ccc2nc(CN3CCC(c4cccnc4OCc4ccc(Cl)cc4F)CC3)n(Cc3cnco3)c2c1` [Example 6, 2-[(4-{2-[(4-chloro-2-fluorobenzyl)oxy]pyridin-3-yl}piperidin-1-yl)methyl]-1-(1,3-oxazol-5-ylmethyl)-1H-benzimidazole-6-carboxylic acid, trifluoroacetate salt], the results for the EC50 at human GLP-1R [1] and on human GLP-1R [2] were 4.5 nM and 84 nM, respectively. For the same compound, the results for the Emax at human GLP-1R [1] (setting [3]) and at human GLP-1R [2] (setting [4]) were 68% and 83%, respectively.

In the case of `Cn1cncc1Cn1c(C2CC23CCN(c2cccc(OCc4ccc(C#N)cc4F)n2)CC3)nc2ccc(C(=O)O)cc21` (stereo not drawn) [Example 37, 2-(6-{6-[(4-cyano-2-fluorobenzyl)oxy]pyridin-2-yl}-6-azaspiro[2.5]oct-1-yl)-1-[(1-methyl-1H-imidazol-5-yl)methyl]-1H-benzimidazole-6-carboxylic acid, trifluoroacetate salt], the EC50 was determined as 9.3 nM on human GLP-1R [1] and 190 nM on human GLP-1R [2]. Besides, the maximum response (Emax) is 88% at human GLP-1R [1] (setting [3]) and 92% at human GLP-1R [2] (setting [4]).

`Cn1cncc1Cn1c(CN2CCC(c3cccnc3OCc3ccc(Cl)cc3F)CC2)nc2ccc(C(=O)O)cc21` [Example 11, 2-[(4-{2-[(4-chloro-2-fluorobenzyl)oxy]pyridin-3-yl}piperidin-1-yl)methyl]-1-[(1-methyl-1H-imidazol-5-yl)methyl]-1H-benzimidazole-6-carboxylic acid, trifluoroacetate salt]: the EC50 on human GLP-1R [1] amounted to 1.9 nM; at human GLP-1R [2], 49 nM. Besides, the maximum response (Emax) on human GLP-1R [1] (setting [3]) was 83%; at human GLP-1R [2] (setting [4]) it was 100%.

For `COCCn1c(CN2CCC(c3nccnc3OCc3ccc(Cl)cc3F)CC2)nc2ccc(C(=O)O)cc21` [Example 23, 2-[(4-{3-[(4-chloro-2-fluorobenzyl)oxy]pyrazin-2-yl}piperidin-1-yl)methyl]-1-(2-methoxyethyl)-1H-benzimidazole-6-carboxylic acid, hydrochloride salt], the 50% effective concentration (EC50) on human GLP-1R [1] was determined as 41 nM; at human GLP-1R [2], 450 nM. The Emax is 89% on human GLP-1R [1] (setting [3]) and 94% on human GLP-1R [2] (setting [4]).

For `C[C@@H]1CN(Cc2nc3ccc(C(=O)O)cc3n2C[C@@H]2CCO2)[C@@H](C)CN1c1ccnc(OCc2ccc(Cl)cc2F)n1` [Example 76, ammonium 2-{[(2S,5R)-4-{2-[(4-chloro-2-fluorobenzyl)oxy]pyrimidin-4-yl}-2,5-dimethylpiperazin-1-yl]methyl}-1-[(2S)-oxetan-2-ylmethyl]-1H-benzimidazole-6-carboxylate], the EC50 on human GLP-1R [1] was determined as 12 nM; on human GLP-1R [2] it was 180 nM. The Emax on human GLP-1R [1] (setting [3]) is 88%; at human GLP-1R [2] (setting [4]), 100%.

Turning to `CCn1cncc1Cn1c(CN2CCC(c3cccnc3OCc3ccc(Cl)cc3F)CC2)nc2ccc(C(=O)O)nc21` [Example 15, 2-[(4-{2-[(4-chloro-2-fluorobenzyl)oxy]pyridin-3-yl}piperidin-1-yl)methyl]-3-[(1-ethyl-1H-imidazol-5-yl)methyl]-3H-imidazo[4,5-b]pyridine-5-carboxylic acid, trifluoroacetate salt], the EC50 was 0.96 nM at human GLP-1R [1] and 21 nM at human GLP-1R [2]. Further, the Emax at human GLP-1R [1] (setting [3]) amounted to 81%; on human GLP-1R [2] (setting [4]), 91%.
